Earlier results in US5932245A, “Gelatin or collagen hydrolysate containing drug formulation that provides for immediate release of nanoparticle drug compounds” (priority 1991, dated 1999).
Values after ≈ are worked out from the molar mass of the structure shown. Read-outs that look alike come from different tables or passages of the source.

Assays:
[1] = in contrast to indometacin
[2] = in vivo
[3] = aqueous medium

COc1ccc2c(c1)c(CC(=O)OCC(=O)O)c(C)n2C(=O)c1ccc(Cl)cc1 [acemetacin, carboxymethyl(1-(4-chlorobenzoyl)-5-methoxy-2-methyl-3-indolyl)acetate]
ulcerogenic properties [1]: weakly pronounced ulcerogenic properties
metabolism [2]: for the most part metabolized to indometacin

COc1ccc(Cl)cc1C(=O)NCCc1ccc(S(=O)(=O)NC(=O)NC2CCCCC2)cc1 [glibenclamide, 1-{4-[2-(5-chloro-2-methoxybenzamido)ethyl]phenylsulfonyl}-3-cyclohexylurea]
solubility ([3]; pH 1.3, room temperature): 1 µg/mL (≈ 2.02 µM)
solubility ([3]; pH 6.0, room temperature): 3 µg/mL (≈ 6.07 µM)
solubility ([3]; pH 7.8, room temperature): about 30 mg/l

COc1ccc2c(c1)c(CC(=O)O)c(C)n2C(=O)c1ccc(Cl)cc1 [indometacin, (1-(4-chlorobenzoyl)-5-methoxy-2-methyl-3-indolyl)acetic acid]
water solubility (in words): virtually water-insoluble
